Measured values taken from patent US20240082463A1, “COATED MEDICAL PRODUCT” (HEMOTEQ AG, priority 2020, published 2024).

How the values were obtained:
[1] = Crystal suspensions of microcrystalline paclitaxel with different proportions of tri-O-acylglycerol; format: physicochemical; conditions: tri-O-acylglycerol:paclitaxel 20:80, after 100 h
Description: For this purpose, further investigation was carried out using solutions of trioctanoylglycerol or tridecanoylglycerol with different proportions of tri-O-acylglycerol to find out the optimum mass ratio of tri-O-acylglycerol to microcrystalline paclitaxel. To prepare the solutions, the appropriate amount of each tri-O-acylglycerol was dissolved in 14 g ethyl acetate (15.6 mL). […] Subsequently, homogenization and filtration were performed.

[2] = Uniformity of coating and recovery rate of active agent on coated balloon catheters
Source text: Balloon catheters 4×40 mm were coated with a 2% PTX suspension containing trioctanoylglycerol (20 wt % based on PTX) using a droplet dosing technique in a microdosing method such as the pipetting method, or droplet dragging method. […] The studies on the recovery rate of active agent on balloon catheters divided into equally sized segments confirm the uniformity of the coating and thus the success in using a crystal suspension as well as a 100% recovery rate
Balloon catheters 4×40 mm were each coated with a 2% PTX suspension containing tridodecanoylglycerol or tritetradecanoylglycerol (20 wt % based on PTX) using a drop dosing technique in a micro dosing method such as the pipetting method or drop dragging method.
For this purpose, the coated weighed balloon is fixed and inflated. The balloon is then cut with a scalpel into pieces of as equal size as possible, e.g. a 40 mm long balloon into 4 pieces, a 120 mm long balloon can be divided into 6 pieces. First, cut the balloon in half lengthwise and measure the layer thickness with a micrometer. Then the balloon is divided and the pieces are weighed and also the layer thicknesses are measured with the micrometer.
The coatings are each dissolved in a defined amount of acetone and the amount of active agent is determined via HPLC. The results are compared with each other, taking into account the balloon section areas.

[3] = cited from earlier work
[4] = Preparation and stability of crystal suspensions of microcrystalline paclitaxel with solutions of different tri-O-acylglycerols; conditions: for microcrystals of paclitaxel dissolve directly in the solution: directly after combining, room temperature; for microcrystals intact in SEM images: SEM 200× and 1000×
Source text: In the first step, solutions of tri-O-acylglycerols were first prepared in a solvent mixture. Subsequently, the solutions were combined with microcrystals of paclitaxel to investigate which tri-O-acylglycerols could be used to obtain stable crystal suspensions. […] For the preparation of the solutions, an ethyl acetate/heptane solvent mixture was used here as an example.
To prepare the solutions, the respective tri-O-acylglycerol was first dissolved in a polar organic solvent and then a non-polar solvent was added.
To prepare the solutions, 770 mg of the respective tri-O-acylglycerol were dissolved in 14 g ethyl acetate (15.6 mL). Then, 57.4 g of n-heptane (84.4 mL) was added.
Subsequently, homogenization and filtration were performed. The total volume of the solvent mixture is 100 mL.
To a precisely weighed amount of dry microcrystals of the previously prepared paclitaxel, a defined amount of the solutions containing tri-O-acylglycerol and optionally antioxidant is carefully added.
To check whether crystal suspension can be prepared, to each 200 mg of paclitaxel in the form of microcrystals were carefully added 10 mL of one of the solutions 1a) to 1j) at room temperature. Six mixtures of 10 mL of solution for each solution were prepared. After combining, it was tested whether the microcrystals of paclitaxel dissolved directly in the solutions.
To evaluate the crystal size, particle size distribution (i.e., crystal size distribution), and shape of the crystals, a sample was taken with a Pasteur pipette in each case and a drop was placed on the slide of the SEM sample plate. SEM images were taken at 200× and 1000× magnification for evaluation.
To evaluate the crystal size, particle size distribution (i.e., crystal size distribution), and shape of the crystals, one sample was taken from each using a Pasteur pipette and one drop was placed on the foil of the SEM sample plate. An additional sample was taken from the sediment and one drop was placed on the slide of the SEM sample plate. SEM images were taken at 200× and 1000× magnification for evaluation. SEM images were taken at 200 and 1000× magnification for evaluation.
To prepare the solutions, 770 mg of the respective tri-O-acylglycerol were dissolved in 14 g ethyl acetate (15.6 mL). Then, 57.4 g of n-heptane (84.4 mL) was added. Subsequently, homogenization and filtration were performed. The total volume of the solvent mixture is 100 mL.
Three mixtures of 10 mL of solution for each solution were prepared. After combining, it was tested whether the microcrystals dissolved directly in these solutions.

[5] = 100 h and temperature elevation to 50° C.
[6] = after 24-48 hours and temperature elevation to 50° C.

Row | SMILES | stability of crystal suspension at ratio 20:80 [1] | stability and flexibility of coating [2] | solubility in water [3] | stability of crystal suspension [4, 5] | state of paclitaxel microcrystals in the suspension after 100 h [4] | microcrystals of paclitaxel dissolve directly in the solution [4] | paclitaxel microcrystals on temperature increase ([4]; temperature increased (50° C.)) | stability of crystal suspension [4, 6] | sedimentation of the microcrystals [4] | microcrystals intact in SEM images [4]
1 | CCCCCCCCCC(=O)OCC(COC(=O)CCCCCCCCC)OC(=O)CCCCCCCCC [tridecanoylglycerol] | excellent stable | particularly stable and flexible coating | practically insoluble | remained stable |  |  |  |  |  | 
2 | CCCCCC(=O)OCC(COC(=O)CCCCC)OC(=O)CCCCC [trihexanoylglycerol] |  |  |  |  | not as uniformly present | did not dissolve directly | dissolved rapidly |  |  | 
3 | CCCCCCCCC(=O)OCC(COC(=O)CCCCCCCC)OC(=O)CCCCCCCC [trinonanoylglycerol] |  |  | practically insoluble |  |  |  |  | remained stable |  | 
4 | CCCCCCCC(=O)OCC(COC(=O)CCCCCCC)OC(=O)CCCCCCC [trioctanoylglycerol] | excellent stable | particularly stable and flexible coating | practically insoluble | remained stable |  |  |  |  |  | 
5 | CCCCCCCCCCCCCC(=O)OCC(COC(=O)CCCCCCCCCCCCC)OC(=O)CCCCCCCCCCCCC [tritetradecanoylglycerol] |  |  |  |  | did not dissolve completely | did not dissolve directly |  |  | sedimentation of the crystals occurred | did not remain intact
6 | CCCCCCCCCCC(=O)OCC(COC(=O)CCCCCCCCCC)OC(=O)CCCCCCCCCC [triundecanoylglycerol, 1,3-bis(undecanoyloxy)propan-2-yl-undecanoate] |  |  | practically insoluble |  |  |  |  | remained stable | no sedimentation | remained intact
